Measured values as given in ChEMBL document CHEMBL1201862, “PubChem BioAssay data set” (2004).
Activity calls are given as the source filed them.

How the values were obtained:
[1] = target: 72 kDa type IV collagenase (Homo sapiens, UniProt P08253); assay: Dose Response validation of uHTS RPN11 inhibitor hits using a MMP-2 Fluorescence assay.; assay type: functional
[2] = target: Intestinal-type alkaline phosphatase (Homo sapiens, UniProt P09923); assay: inhibition of human intestinal alkaline phosphatase – biochemical, dose response (AID 488876); assay type: functional
Intestinal-type alkaline phosphatase (Homo sapiens, UniProt P09923), sequence (P09923 whole entry): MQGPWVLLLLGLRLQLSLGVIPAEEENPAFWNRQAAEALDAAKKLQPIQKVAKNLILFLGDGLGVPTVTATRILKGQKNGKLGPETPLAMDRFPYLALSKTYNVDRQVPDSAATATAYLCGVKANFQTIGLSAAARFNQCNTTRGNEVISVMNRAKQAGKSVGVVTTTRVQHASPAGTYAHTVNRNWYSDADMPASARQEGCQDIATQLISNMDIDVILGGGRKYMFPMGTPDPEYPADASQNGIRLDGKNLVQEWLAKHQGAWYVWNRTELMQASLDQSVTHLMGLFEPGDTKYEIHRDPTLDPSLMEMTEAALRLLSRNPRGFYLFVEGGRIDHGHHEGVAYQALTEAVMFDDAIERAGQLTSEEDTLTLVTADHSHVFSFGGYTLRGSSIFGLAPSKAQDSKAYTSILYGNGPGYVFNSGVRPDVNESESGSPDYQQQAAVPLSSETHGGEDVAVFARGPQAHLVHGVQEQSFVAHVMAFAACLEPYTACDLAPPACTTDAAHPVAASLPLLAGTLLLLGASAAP

Cysteine protease ATG4B = target: T1, Cysteine protease ATG4B (Homo sapiens, UniProt Q9Y4P1); assay type: functional;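 also: Fluorescence-based dose-response confirmation assay measuring inhibition of ATG4B activity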
T1 sequence (Q9Y4P1 whole entry): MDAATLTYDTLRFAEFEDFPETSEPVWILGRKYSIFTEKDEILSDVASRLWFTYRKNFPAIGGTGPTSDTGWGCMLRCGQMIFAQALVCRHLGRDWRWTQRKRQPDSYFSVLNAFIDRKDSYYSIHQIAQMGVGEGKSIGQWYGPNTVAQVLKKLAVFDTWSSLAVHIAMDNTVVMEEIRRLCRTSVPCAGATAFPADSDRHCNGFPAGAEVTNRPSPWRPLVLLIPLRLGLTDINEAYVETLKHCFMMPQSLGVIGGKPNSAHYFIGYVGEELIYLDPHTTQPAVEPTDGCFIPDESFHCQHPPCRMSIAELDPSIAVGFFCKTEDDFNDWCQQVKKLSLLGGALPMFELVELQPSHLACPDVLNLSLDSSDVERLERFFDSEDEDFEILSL

SUMO-activating enzyme [3] = target: T2, SUMO-activating enzyme (Homo sapiens, UniProt Q9UBT2); assay: blockers of UBC9-mediated SUMO conjugation – biochemical, AlphaScreen, SUMOylation inhibitor project, confirmation (AID 2018); assay type: functional
T2 sequence (Q9UBE0 whole entry): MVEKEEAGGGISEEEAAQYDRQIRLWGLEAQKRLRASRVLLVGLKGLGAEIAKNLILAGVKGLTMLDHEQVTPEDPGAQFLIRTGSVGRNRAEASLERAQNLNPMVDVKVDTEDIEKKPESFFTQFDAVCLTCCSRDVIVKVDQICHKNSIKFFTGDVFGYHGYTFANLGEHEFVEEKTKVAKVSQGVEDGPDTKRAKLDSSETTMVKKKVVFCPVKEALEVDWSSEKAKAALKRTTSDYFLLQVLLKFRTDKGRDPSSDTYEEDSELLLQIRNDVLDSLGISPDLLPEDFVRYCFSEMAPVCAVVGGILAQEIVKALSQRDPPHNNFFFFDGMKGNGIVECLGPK
T2 sequence (Q9UBT2 whole entry): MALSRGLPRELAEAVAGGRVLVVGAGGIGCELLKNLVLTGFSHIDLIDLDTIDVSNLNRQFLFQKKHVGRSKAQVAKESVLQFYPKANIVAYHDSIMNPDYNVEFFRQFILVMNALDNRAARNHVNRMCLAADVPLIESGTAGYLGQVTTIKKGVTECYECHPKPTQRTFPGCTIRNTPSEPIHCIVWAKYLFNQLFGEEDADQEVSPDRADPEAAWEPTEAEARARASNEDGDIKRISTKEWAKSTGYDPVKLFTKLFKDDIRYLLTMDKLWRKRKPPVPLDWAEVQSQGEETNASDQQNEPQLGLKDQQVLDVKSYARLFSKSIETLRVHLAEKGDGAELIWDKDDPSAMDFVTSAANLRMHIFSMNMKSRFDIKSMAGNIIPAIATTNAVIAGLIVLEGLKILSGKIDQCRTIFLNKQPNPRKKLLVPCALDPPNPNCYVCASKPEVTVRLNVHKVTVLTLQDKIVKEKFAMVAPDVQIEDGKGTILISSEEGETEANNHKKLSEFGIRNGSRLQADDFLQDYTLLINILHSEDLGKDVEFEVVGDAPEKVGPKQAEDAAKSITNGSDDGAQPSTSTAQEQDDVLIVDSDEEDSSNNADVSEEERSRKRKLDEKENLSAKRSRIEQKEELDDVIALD

[4] = target: Intestinal-type alkaline phosphatase (Mus musculus, UniProt P24822); assay: PubChem AID 488785; assay type: functional
[5] = target: 26S proteasome non-ATPase regulatory subunit 14 (Homo sapiens, UniProt O00487); assay: inhibition of proteasome subunit RPN11 – biochemical, fluorescence polarization, uHTS hits, confirmation (AID 602368); assay type: functional
SUMO-activating enzyme [6] = target: T2, SUMO-activating enzyme; assay: blockers of SAE1/SAE2–UBC9 SUMO transfer – biochemical, HTRF, uHTS, primary screen (AID 2006); assay type: protein-complex assay
[7] = target: T3, Alkaline phosphatase, tissue-nonspecific isozyme (Homo sapiens, UniProt P05186); assay: TNAP enzyme inhibition by screening hits, dose response, selectivity assay for mouse IAP inhibitor project, biochemical, human TNAP, uHTS hits (AID 488906); assay type: functional
T3 sequence (P05186 whole entry): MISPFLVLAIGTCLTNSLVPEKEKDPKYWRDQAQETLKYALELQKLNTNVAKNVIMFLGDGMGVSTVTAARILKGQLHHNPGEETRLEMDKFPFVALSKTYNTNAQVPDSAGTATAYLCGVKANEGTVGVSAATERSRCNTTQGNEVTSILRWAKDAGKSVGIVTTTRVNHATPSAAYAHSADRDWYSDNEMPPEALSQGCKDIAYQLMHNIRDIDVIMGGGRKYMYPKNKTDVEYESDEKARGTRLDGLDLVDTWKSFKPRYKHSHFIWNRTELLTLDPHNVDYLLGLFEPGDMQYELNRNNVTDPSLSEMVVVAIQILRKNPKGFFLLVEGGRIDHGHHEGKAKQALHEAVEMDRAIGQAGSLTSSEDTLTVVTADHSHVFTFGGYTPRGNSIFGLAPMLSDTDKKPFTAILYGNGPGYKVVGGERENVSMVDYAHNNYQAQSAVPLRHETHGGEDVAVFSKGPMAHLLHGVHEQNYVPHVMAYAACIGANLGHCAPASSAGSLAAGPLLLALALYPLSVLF

Phospholipase A2 = Phospholipase A2 (Homo sapiens, UniProt P04054); assay type: functional;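 also: confirmatory dose-response counterscreen on phospholipase A2, testing hits that came from an ultra-high-throughput screen for ATG4B inhibitors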
Phospholipase A2, sequence (P04054 whole entry): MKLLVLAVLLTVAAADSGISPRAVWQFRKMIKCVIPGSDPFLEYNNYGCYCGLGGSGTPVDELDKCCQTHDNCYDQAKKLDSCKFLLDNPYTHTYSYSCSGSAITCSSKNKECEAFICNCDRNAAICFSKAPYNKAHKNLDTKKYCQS

Prothrombin = Prothrombin (Bos taurus, UniProt P00735); assay: thrombin protease inhibitors – biochemical, fluorescence polarization, uHTS hits, dose response (AID 602369); assay type: functional
Keap1/Nrf2 = Keap1/Nrf2 (Homo sapiens, UniProt Q14145); assay: disruptors of Keap1 binding to Nrf2 peptide – biochemical, fluorescence polarization, cherry-picked samples, dose response (AID 588683)
Keap1/Nrf2, sequence (Q16236 whole entry): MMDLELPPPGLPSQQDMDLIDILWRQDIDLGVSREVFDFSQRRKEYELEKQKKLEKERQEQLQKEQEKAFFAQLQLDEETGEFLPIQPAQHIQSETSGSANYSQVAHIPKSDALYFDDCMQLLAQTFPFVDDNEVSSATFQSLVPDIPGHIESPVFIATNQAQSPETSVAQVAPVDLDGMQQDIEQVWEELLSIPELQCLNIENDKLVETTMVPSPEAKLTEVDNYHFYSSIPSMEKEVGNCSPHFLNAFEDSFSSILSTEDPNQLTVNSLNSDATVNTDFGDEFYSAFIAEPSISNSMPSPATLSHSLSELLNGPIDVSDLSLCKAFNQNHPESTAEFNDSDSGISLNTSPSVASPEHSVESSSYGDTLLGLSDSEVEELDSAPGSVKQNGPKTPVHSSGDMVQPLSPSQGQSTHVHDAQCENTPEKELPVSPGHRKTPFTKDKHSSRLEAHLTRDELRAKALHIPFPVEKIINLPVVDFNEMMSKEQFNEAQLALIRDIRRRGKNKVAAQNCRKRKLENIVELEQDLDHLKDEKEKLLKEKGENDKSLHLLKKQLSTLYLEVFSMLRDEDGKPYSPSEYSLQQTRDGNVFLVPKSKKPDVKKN
Keap1/Nrf2, sequence (Q14145 whole entry): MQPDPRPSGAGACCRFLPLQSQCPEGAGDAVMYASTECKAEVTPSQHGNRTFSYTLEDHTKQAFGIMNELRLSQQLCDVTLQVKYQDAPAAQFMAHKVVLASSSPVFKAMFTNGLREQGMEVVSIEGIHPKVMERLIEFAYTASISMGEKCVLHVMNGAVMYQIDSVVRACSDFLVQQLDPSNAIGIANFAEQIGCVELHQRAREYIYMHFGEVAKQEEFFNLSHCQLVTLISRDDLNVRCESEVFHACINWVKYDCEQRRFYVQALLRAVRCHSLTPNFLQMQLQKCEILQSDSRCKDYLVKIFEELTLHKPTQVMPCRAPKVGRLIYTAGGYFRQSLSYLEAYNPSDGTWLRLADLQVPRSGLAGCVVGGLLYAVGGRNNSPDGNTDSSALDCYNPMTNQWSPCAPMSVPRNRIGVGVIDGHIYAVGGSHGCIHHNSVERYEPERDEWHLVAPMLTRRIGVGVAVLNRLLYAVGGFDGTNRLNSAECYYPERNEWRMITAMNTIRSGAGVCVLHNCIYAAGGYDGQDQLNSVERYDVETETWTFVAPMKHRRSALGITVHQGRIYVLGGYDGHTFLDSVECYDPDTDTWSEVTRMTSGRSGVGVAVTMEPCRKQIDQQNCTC

[8] = target: T4, Tyrosyl-DNA phosphodiesterase 2 (Homo sapiens, UniProt O95551); assay: potency against TDP2 phosphodiesterase activity – biochemical, epi absorbance, IC50, dose response (AID 743297)
T4 sequence (O95551 whole entry): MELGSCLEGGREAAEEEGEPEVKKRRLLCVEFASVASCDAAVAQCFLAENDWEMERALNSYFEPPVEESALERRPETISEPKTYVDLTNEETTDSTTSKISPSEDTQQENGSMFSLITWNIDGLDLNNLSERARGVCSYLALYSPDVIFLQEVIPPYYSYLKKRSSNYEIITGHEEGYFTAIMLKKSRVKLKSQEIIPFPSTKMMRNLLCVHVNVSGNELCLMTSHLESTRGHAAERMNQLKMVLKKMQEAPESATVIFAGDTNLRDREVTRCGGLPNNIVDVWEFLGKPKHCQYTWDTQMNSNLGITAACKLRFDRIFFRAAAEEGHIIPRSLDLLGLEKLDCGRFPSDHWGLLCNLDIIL

[9] = target: T5, Histone-lysine N-methyltransferase NSD2 (Homo sapiens, UniProt O96028); assay type: biochemical
T5 sequence (O96028 whole entry): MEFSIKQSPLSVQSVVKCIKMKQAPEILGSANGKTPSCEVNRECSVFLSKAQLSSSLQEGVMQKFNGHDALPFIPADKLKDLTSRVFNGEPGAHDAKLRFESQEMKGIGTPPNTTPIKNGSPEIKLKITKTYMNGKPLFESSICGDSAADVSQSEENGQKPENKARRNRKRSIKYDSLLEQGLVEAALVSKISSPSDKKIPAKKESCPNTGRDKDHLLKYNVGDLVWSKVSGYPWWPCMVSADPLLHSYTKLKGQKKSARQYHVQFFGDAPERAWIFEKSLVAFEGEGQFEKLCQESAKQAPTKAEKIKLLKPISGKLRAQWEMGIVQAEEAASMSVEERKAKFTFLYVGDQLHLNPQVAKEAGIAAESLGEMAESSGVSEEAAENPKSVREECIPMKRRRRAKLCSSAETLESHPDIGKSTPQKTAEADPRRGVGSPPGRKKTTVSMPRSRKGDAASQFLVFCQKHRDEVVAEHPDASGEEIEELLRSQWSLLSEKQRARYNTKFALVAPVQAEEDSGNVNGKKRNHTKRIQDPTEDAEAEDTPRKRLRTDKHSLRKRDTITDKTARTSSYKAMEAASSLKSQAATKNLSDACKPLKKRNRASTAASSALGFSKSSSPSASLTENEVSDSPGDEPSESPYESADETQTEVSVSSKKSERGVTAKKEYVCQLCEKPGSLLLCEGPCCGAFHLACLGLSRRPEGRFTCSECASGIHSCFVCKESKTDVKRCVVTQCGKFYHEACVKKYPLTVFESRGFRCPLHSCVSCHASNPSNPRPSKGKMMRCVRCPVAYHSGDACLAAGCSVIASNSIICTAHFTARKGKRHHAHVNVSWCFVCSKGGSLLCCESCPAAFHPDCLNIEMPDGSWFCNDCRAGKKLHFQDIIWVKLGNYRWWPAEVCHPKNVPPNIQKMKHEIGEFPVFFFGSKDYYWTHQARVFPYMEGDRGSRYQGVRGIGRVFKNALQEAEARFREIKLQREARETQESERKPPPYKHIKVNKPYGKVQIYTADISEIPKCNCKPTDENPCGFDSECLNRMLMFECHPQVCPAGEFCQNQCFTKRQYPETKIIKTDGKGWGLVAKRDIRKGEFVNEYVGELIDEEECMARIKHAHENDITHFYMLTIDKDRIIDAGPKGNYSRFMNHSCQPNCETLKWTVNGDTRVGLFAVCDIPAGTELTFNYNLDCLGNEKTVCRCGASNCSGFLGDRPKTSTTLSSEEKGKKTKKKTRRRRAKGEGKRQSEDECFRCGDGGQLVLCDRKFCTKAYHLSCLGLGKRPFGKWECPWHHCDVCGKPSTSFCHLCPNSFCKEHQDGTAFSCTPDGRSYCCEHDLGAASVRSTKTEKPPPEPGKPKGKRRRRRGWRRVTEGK

[10] = target: DNA (cytosine-5)-methyltransferase 1 (Homo sapiens, UniProt P26358); assay: inhibition of DNA methylation by DNMT1 – biochemical, fluorescent molecular beacon, confirmation (AID 602386); assay type: functional
Genome polyprotein = Genome polyprotein (dengue virus type 2, UniProt P29990); assay: flavivirus cap methylation enzyme inhibition – biochemical, confirmation dose response, primary screen (AID 588689); assay type: functional
[11] = target: T6, Heat shock factor protein 1 (Mus musculus, UniProt P38532); assay: decrease of HSF1-responsive luciferase luminescence – cell-based, NIH3T3, dose retest, confirmation (AID 2382); assay type: functional;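 also: NIH3T3 fibroblasts with HSF1-driven luciferase reporter stressed by proteasome inhibitor MG132; luminescence from HSF1-driven luciferase expression after 8 hours of MG132 stress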
T6 sequence (P38532 whole entry): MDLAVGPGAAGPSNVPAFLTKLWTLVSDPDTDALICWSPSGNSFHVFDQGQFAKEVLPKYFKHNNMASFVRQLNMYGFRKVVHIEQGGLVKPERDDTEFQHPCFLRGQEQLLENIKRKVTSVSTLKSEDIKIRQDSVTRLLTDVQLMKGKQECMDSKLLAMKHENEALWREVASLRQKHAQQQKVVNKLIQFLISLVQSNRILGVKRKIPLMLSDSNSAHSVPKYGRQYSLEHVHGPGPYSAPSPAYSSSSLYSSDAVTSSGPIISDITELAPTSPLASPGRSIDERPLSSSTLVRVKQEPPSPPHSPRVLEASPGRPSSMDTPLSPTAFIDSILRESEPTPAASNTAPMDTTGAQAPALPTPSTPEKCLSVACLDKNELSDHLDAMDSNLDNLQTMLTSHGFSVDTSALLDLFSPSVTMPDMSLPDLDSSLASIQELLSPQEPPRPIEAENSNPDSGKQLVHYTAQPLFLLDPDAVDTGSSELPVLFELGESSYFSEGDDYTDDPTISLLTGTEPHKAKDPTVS

[12] = target: Heat shock protein HSP 90-alpha (Homo sapiens, UniProt P07900); assay type: functional, organism-based
ORF 73 = ORF 73 (Human herpesvirus 8, UniProt O40947); assay: KSHV LANA DNA-binding disruption – biochemical, fluorescence polarization, cherry-picked samples, dose response (AID 504725); set-up: species or system Human gammaherpesvirus 8;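 also: fluorescence polarization of a labeled DNA duplex reporting LANA DNA binding; potency is for inhibitors that block LANA binding to the DNA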
ORF 73, sequence (O40947 whole entry): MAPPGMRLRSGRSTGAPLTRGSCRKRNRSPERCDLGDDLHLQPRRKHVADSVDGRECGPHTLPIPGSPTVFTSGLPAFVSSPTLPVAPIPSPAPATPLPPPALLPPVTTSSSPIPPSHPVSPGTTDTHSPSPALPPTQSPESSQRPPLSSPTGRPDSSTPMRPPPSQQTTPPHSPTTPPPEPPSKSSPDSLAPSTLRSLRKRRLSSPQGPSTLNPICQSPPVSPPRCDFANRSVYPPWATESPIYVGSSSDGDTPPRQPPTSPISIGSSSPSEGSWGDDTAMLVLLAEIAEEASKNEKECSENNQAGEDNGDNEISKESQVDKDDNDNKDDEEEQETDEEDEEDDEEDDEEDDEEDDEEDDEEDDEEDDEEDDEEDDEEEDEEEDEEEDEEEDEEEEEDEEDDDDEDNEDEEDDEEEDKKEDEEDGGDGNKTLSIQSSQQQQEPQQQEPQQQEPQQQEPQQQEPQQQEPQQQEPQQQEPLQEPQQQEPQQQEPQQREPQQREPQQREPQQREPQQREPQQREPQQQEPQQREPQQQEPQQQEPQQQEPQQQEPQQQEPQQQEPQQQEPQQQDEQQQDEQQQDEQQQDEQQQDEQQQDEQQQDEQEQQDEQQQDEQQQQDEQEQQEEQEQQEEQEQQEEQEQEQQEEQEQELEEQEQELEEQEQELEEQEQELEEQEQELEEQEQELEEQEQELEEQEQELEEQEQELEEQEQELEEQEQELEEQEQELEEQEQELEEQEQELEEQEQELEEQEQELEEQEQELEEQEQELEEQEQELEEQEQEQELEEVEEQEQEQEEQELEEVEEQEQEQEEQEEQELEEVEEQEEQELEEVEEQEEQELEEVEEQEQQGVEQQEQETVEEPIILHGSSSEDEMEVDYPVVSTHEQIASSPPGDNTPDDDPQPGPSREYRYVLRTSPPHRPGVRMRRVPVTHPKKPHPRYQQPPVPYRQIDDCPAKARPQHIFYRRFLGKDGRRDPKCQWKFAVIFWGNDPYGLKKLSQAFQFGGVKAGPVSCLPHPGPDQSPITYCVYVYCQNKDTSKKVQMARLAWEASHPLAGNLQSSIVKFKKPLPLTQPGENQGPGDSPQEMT

Beta-lactamase [13] = target: Beta-lactamase (Salmonella choleraesuis (strain SC-B67), UniProt Q5J463)
Beta-lactamase [14] = target: Beta-lactamase (Pseudomonas aeruginosa, UniProt Q79MP6);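 also: biochemical dose-response test of metallo-beta-lactamase enzyme inhibition, read out by epi-absorbance; purified recombinant IMP-1 metallo-beta-lactamase with nitrocefin as substrate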
Beta-lactamase (Pseudomonas aeruginosa, UniProt Q79MP6), sequence (Q79MP6 whole entry): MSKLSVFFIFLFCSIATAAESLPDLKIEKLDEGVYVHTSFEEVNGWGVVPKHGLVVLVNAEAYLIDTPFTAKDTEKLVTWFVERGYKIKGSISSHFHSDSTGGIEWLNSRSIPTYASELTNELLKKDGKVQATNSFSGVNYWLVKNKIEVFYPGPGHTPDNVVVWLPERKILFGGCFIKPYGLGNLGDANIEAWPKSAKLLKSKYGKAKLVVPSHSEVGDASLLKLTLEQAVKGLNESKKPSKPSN

[15] = target: Voltage-dependent T-type calcium channel subunit alpha-1H (Homo sapiens, UniProt O95180); assay type: functional;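 also: channel activity triggered by adding a high calcium stimulation buffer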
[16] = target: T7, RNA-binding protein pos-1 (Caenorhabditis elegans, UniProt G5EF15); assay: disruptors of C. elegans POS-1 RNA interaction – biochemical, fluorescence polarization, dose response (AID 1964);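 also: purified POS-1 fused to maltose binding protein made in E. coli; potency of compounds blocking POS-1 binding to fluorescent RNA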
T7 sequence (G5EF15 whole entry): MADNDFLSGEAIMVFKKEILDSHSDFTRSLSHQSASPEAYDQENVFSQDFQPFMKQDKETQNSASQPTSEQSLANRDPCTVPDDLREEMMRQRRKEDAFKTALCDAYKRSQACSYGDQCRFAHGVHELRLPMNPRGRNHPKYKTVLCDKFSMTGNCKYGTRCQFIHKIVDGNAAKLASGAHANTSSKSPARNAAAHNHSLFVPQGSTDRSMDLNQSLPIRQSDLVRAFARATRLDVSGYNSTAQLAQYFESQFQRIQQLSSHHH

[17] = target: T8, Zinc finger protein mex-5 (Caenorhabditis elegans, UniProt Q9XUB2); assay: potency of MEX-5 RNA-binding blockers – biochemical, C. elegans, fluorescence polarization, dose response (AID 1960)
T8 sequence (Q9XUB2 whole entry): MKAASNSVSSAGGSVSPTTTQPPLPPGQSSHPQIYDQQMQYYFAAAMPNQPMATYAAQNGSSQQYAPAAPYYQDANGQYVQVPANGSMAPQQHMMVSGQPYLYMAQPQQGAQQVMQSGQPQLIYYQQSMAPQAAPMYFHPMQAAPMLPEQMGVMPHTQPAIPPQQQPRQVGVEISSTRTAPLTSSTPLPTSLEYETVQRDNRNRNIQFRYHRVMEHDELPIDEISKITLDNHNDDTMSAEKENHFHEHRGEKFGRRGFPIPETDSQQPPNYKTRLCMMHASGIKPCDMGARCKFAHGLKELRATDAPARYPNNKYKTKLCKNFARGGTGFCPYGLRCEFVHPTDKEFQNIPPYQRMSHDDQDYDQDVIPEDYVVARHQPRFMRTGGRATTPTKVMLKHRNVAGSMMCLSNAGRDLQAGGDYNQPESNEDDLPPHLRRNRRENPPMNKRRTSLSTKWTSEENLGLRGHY

[18] = target: DNA dC->dU-editing enzyme APOBEC-3G (Homo sapiens, UniProt Q9HC16); assay: Dose Response confirmation of small molecule APOBEC3G DNA Deaminase Inhibitors via a fluorescence-based single-stranded DNA deaminase assay. [Related pubchem assays (depositor defined):AID493012, AID493028]; assay type: functional
DNA dC->dU-editing enzyme APOBEC-3G, sequence (Q9HC16 whole entry): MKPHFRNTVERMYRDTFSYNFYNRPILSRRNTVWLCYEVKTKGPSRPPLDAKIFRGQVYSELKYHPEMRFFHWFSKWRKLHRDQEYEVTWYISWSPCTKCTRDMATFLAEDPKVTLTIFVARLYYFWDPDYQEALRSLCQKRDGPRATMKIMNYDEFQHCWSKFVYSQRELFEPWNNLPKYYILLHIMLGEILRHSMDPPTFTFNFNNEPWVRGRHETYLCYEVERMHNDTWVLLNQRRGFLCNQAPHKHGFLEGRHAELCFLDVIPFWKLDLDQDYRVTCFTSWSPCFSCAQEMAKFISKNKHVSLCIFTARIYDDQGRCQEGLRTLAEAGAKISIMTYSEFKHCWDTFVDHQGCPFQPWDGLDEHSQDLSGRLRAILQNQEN

[19] = target: DNA dC->dU-editing enzyme APOBEC-3A (Homo sapiens, UniProt P31941); assay: A3A deaminase inhibition for selectivity – biochemical, dose response (AID 504722); assay type: functional
DNA dC->dU-editing enzyme APOBEC-3A, sequence (P31941 whole entry): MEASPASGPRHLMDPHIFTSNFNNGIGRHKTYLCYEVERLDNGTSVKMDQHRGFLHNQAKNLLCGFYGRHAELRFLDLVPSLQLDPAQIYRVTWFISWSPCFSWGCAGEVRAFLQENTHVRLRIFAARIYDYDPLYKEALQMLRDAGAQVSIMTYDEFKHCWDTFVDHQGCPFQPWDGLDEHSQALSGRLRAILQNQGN

COc1cc(NS(=O)(=O)c2ccc(NC(=S)NC(=O)/C=C/c3ccco3)cc2)ncn1
IC50 [1]: 2.15 µM (active)
IC50 [2]: > 100 µM (inactive)
IC50 (Cysteine protease ATG4B): 6 µM (active)
IC50 (SUMO-activating enzyme [3]): 2.41 µM (active)
IC50 [4]: 18.4 µM (active)
IC50 [5]: 12.9 µM (active)
IC50 (SUMO-activating enzyme [6]): 26.1 µM (active)
IC50 [7]: 45.9 µM (active)
IC50 (Phospholipase A2): > 80 µM (inactive)
IC50 (Prothrombin): 20.5 µM (active)
AC50 (Keap1/Nrf2): > 52 µM (inactive)
IC50 [8]: 30.4 µM (inactive)
AC50 [9]: 13.2 µM (active)
IC50 [10]: 2.92 µM (active)

COc1ccc(OC)c(N2C(=O)NC(=O)/C(=C\c3ccc([N+](=O)[O-])s3)C2=O)c1
IC50 (Genome polyprotein): 39.9 µM (active)
EC50 [11]: > 195 µM (not active)
AC50 [12]: 4.17 µM (active)
AC50 (ORF 73): 90.7 µM (active)

Cc1n[nH]c(C)c1N1C(=O)c2cccc3c(N4CCCCCC4)ccc(c23)C1=O
IC50 (Beta-lactamase [13]): 27.8 µM (inactive)
IC50 (Beta-lactamase [14]): > 59.6 µM (inactive)
EC50 [15]: 1.04 µM (active)
EC50 [16]: 6.94 µM (inconclusive)
EC50 [17]: 1.72 µM (inconclusive)
AC50 (ORF 73): > 350 µM (inactive)
AC50 (Keap1/Nrf2): 32.5 µM (active)

Sc1nnc(COc2ccccc2)n1/N=C/c1ccccn1
IC50 [18]: 3.99 µM (active)
IC50 [19]: > 100 µM (inactive)
